Laboratory results published in the supplement of paper PMC10307832.

What was measured:
Assay in all cases: relative viability (nuclei count vs DMSO), 5 days (fraction); higher = more cells survive
CX-5461 + OSI-027 = compound: Cc1cnc(CNC(=O)c2c(=O)c3ccc(N4CCCN(C)CC4)nc3n3c2sc2ccccc23)cn1 [CX-5461] + COc1cccc2cc(-c3nc([C@H]4CC[C@H](C(=O)O)CC4)n4ncnc(N)c34)[nH]c12 [OSI-027] (partner 0.5 µM)
Method in brief: (§1)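 Nuclei were stained with Hoechst during a one-step fixation (final 0.05% Triton X-100, 1% formaldehyde, 1 ug/ml Hoechst) carried out 5 days after dosing, then counted on 4× images. The cells, lung cancer lines in 1536-well plates, had been dosed by pin tool the day after seeding with one drug alone or a fixed anchor-drug dose plus five library-drug doses (not always all listed) in √10 steps. Relative viability is the nuclei count in treated wells divided by that in vehicle wells, and each value is the median of duplicate plates.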

CX-5461 + Phenformin = compound: Cc1cnc(CNC(=O)c2c(=O)c3ccc(N4CCCN(C)CC4)nc3n3c2sc2ccccc23)cn1 [CX-5461] + N=C(N)NC(=N)NCCc1ccccc1 [Phenformin] (partner 250 µM)
Method in brief: as §1

IMD-0354 + Luminespib = compound: O=C(Nc1cc(C(F)(F)F)cc(C(F)(F)F)c1)c1cc(Cl)ccc1O [IMD-0354] + CCNC(=O)c1noc(-c2cc(C(C)C)c(O)cc2O)c1-c1ccc(CN2CCOCC2)cc1 [Luminespib] (partner 0.01 µM)
Method in brief: as §1

CX-5461 + Linsitinib = compound: Cc1cnc(CNC(=O)c2c(=O)c3ccc(N4CCCN(C)CC4)nc3n3c2sc2ccccc23)cn1 [CX-5461] + C[C@]1(O)C[C@@H](c2nc(-c3ccc4ccc(-c5ccccc5)nc4c3)c3c(N)nccn32)C1 [Linsitinib] (partner 1 µM)
Method in brief: as §1

Cell Line	relative viability (CX-5461 + OSI-027; first compound 0.01 µM)	relative viability (CX-5461 + OSI-027; first compound 0.03162 µM)	relative viability (CX-5461 + OSI-027; first compound 0.1 µM)	relative viability (CX-5461 + OSI-027; first compound 0.3162 µM)	relative viability (CX-5461 + OSI-027; first compound 1 µM)	relative viability (CX-5461 + Phenformin; first compound 0.01 µM)	relative viability (CX-5461 + Phenformin; first compound 0.03162 µM)	relative viability (CX-5461 + Phenformin; first compound 0.1 µM)	relative viability (CX-5461 + Phenformin; first compound 0.3162 µM)	relative viability (CX-5461 + Phenformin; first compound 1 µM)	relative viability (IMD-0354 + Luminespib; first compound 0.04 µM)	relative viability (IMD-0354 + Luminespib; first compound 0.1265 µM)	relative viability (IMD-0354 + Luminespib; first compound 0.4 µM)	relative viability (IMD-0354 + Luminespib; first compound 1.265 µM)	relative viability (IMD-0354 + Luminespib; first compound 4 µM)	relative viability (CX-5461 + Linsitinib; first compound 0.01 µM)	relative viability (CX-5461 + Linsitinib; first compound 0.03162 µM)	relative viability (CX-5461 + Linsitinib; first compound 0.1 µM)	relative viability (CX-5461 + Linsitinib; first compound 0.3162 µM)	relative viability (CX-5461 + Linsitinib; first compound 1 µM)
NCI-H1395	0.639	0.625	0.63	0.475	0.515	0.473	0.426	0.437	0.341	0.396	0.73	0.586	0.675	0.362	0.314	1.06	1.15	1.06	0.612	0.583
NCI-H1437	0.912	0.869	–	0.841	0.662	0.353	0.315	–	0.288	0.273	1.21	0.899	0.45	0.191	0.202	1.17	1.11	–	0.991	0.763
COR-L23	0.802	0.808	0.7	0.835	0.472	0.472	0.431	0.414	0.426	0.301	0.583	0.53	0.402	0.115	0.166	0.908	1.05	0.651	0.969	0.472
ABC-1	0.465	0.562	0.251	–	0.362	0.23	0.212	0.213	–	0.212	0.381	0.82	0.32	0.237	0.307	1.11	0.84	–	0.817	0.494
SW 900	0.423	0.601	0.488	0.386	0.271	0.656	0.641	0.743	0.532	0.209	0.187	0.162	0.178	0.143	0.161	–	–	–	–	–
NCI-H838	0.413	0.384	0.404	–	0.272	0.748	0.652	0.629	–	0.431	0.571	0.246	0.27	0.217	0.244	1.1	1.05	1.08	0.847	0.859
NCI-H1648	–	0.256	0.277	0.27	0.27	–	–	–	–	–	–	–	–	–	–	–	–	–	–	–
A549	–	–	–	–	–	0.155	0.165	0.104	0.0393	0.0272	–	–	–	–	–	0.644	0.712	0.57	0.122	0.544
A-427	0.488	0.534	0.542	–	0.378	0.338	0.348	0.36	–	0.223	1.06	0.985	0.457	0.301	0.166	1.19	1.11	1.15	–	1.08
NCI-H1792	0.657	0.786	0.763	0.759	0.659	0.387	0.198	0.114	0.401	0.111	0.465	0.411	0.35	0.302	0.258	0.54	0.58	0.485	0.565	0.545
LCLC-97TM1	0.483	0.591	0.49	–	0.484	0.397	0.479	0.415	–	0.384	0.735	0.705	0.529	0.251	0.148	0.176	0.205	0.168	–	0.212
NCI-H1703	–	–	–	–	–	–	–	–	–	–	–	–	–	–	–	0.374	1.22	0.898	0.223	0.423
LCLC-103H	0.458	0.433	0.434	0.446	0.384	0.377	0.349	0.326	0.364	0.297	1.1	0.894	0.744	0.432	0.222	1.14	1.16	0.895	1.21	1.12
PC-3 [JPC-3]	0.828	0.811	0.773	0.668	0.707	0.479	0.449	0.467	0.467	0.455	0.688	0.53	0.569	0.351	0.259	0.937	0.885	0.933	0.936	0.918
ChaGo-K-1	0.578	0.636	0.537	0.331	0.315	0.512	0.527	0.474	0.299	0.268	0.639	0.566	0.364	0.223	0.228	–	–	–	–	–
Calu-6	–	–	–	–	–	–	–	–	–	–	–	–	–	–	–	1.02	0.952	0.986	0.827	0.51
HCC-366	0.987	1	0.89	0.764	0.175	0.657	0.657	0.627	0.604	0.253	–	–	–	–	–	0.574	0.738	0.581	0.573	0.615
NCI-H2170	0.812	0.666	0.754	0.707	0.747	0.44	0.418	0.407	0.363	0.322	0.754	0.746	0.491	0.764	0.231	–	–	–	–	–
NCI-H2342	0.633	0.599	0.584	0.642	0.598	0.645	0.53	0.535	0.675	0.586	0.771	0.746	0.629	0.699	0.388	–	–	–	–	–
EBC-1	–	–	–	–	–	–	–	–	–	–	–	–	–	–	–	0.988	1.04	1.04	0.859	0.753
NCI-H1299	–	–	–	–	–	–	–	–	–	–	–	–	–	–	–	0.942	0.977	1.04	1.01	0.831
NCI-H522	0.739	0.771	0.77	–	0.669	0.653	0.614	0.654	–	0.593	1.03	0.908	1.2	0.813	0.505	–	–	–	–	–
IA-LM	–	–	–	–	–	–	–	–	–	–	–	–	–	–	–	0.644	0.863	0.852	0.688	0.415
